This is an account of results in patent US11293927B2, “Screening methods for PARP modulators” (Ribon Therapeutics, Inc., priority 2018, dated 2022).

What all share (type): binding
One experiment addresses T1, PARP14 (Homo sapiens, UniProt Q460N5).
T1 sequence (Q460N5 1611-1801): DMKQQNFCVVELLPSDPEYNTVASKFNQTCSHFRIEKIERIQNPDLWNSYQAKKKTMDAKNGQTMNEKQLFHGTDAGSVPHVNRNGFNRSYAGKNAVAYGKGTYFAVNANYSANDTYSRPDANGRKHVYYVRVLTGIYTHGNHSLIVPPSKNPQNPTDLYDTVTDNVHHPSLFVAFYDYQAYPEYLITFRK
Kind of experiment: In vitro TR-FRET probe displacement assay (Probe C), PARP14. Also on record: made in house; host or cells: E. coli. The note with it: TR-FRET displacement of Probe C, PARP14 residues 1611-1801. The method, then:
A portion of PARP14 (residues 1611 to 1801 of NP_060024.2 (SEQ ID NO: 4), GenBank Accession No. NM_017554) was overexpressed in E. coli cells. An N-terminal fusion tag, […] (SEQ ID NO: 9), was used to purify the protein from cell lysates. The fusion tag was left on the protein for use in the probe displacement assay.
(§1) Displacement of a Probe C binding to monoPARP active sites was measured using a time-resolved fluorescence resonance energy transfer (TR-FRET) assay. 20 nL of a dose response curve of each test compound was spotted in black 384-well polystyrene proxiplates (Perkin Elmer) using a Mosquito (TTP Labtech). Reactions were performed in an 8 μL volume by adding 6 μL of the monoPARP and Probe C in assay buffer (20 mM HEPES pH=8, 100 mM NaCl, 0.1% bovine serum albumin, 2 mM DTT and 0.002% Tween20), incubating with test compound at 25° C. for 30 min, then adding 2 μL of ULight-anti 6×His and LANCE Eu-W 1024 labeled streptavidin (Perkin Elmer). Binding reactions were equilibrated at 25° C. for an additional 30 min, then read on an Envision platereader equipped with a LANCE/DELFIA top mirror (Perkin Elmer) using excitation of 320 nm and emission of 615 nm and […] with a 90 μs delay. The ratio of the 665/615 nm emission were calculated for each well to determine the amount of complex of monoPARP and Probe C in each well. […]

The next experiment has as its target T2, TIPARP (Homo sapiens, UniProt Q7Z3E1).
T2 construct: made in house; host or cells: E. coli
T2 sequence (Q7Z3E1 456-657): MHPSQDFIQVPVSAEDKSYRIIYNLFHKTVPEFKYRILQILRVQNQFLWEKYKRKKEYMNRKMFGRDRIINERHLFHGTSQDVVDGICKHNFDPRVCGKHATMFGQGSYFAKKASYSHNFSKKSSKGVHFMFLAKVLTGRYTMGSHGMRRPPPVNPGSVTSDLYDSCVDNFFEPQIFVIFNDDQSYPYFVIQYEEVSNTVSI
The experiment is described as follows: In vitro TR-FRET probe displacement assay (Probe C), TIPARP. The note with it: TR-FRET displacement of Probe C, TIPARP residues 456-657. The method, then:
A portion of TIPARP (residues 456 to 657 of NP_056323.2 (SEQ ID NO: 1), GenBank Accession No. NM_015508.4) was overexpressed in E. coli cells. An N-terminal fusion tag, […] (SEQ ID NO: 7), was used to purify the protein from cell lysates. The fusion tag was left on the protein for use in the probe displacement assay.
as §1

A further experiment deals with T3, PARP12 (Homo sapiens, UniProt Q9H0J9).
T3 sequence (Q9H0J9 489-684): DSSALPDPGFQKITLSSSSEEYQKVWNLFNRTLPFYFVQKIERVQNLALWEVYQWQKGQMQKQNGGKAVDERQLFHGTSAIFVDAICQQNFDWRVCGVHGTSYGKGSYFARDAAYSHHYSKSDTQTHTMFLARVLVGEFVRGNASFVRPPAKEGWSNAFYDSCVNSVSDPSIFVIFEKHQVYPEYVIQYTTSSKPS
Kind of experiment: In vitro TR-FRET probe displacement assay (Probe C), PARP12. Set-up: 489-684 of. The note with it: TR-FRET displacement of Probe C, PARP12 residues 489-684. As for the experimental part:
A portion of PARP12 (residues 489 to 684 of NP_073587.1 (SEQ ID NO: 3), GenBank Accession No. NM_022750.3) was overexpressed in Sf9 cells. An N-terminal fusion tag, MAHHHHHHENLYFQSM (SEQ ID NO: 8), was used to purify the protein from cell lysates. The fusion tag was left on the protein for use in the probe displacement assay.
as §1, with “in a” for “in an”, “of ULight-streptavidin” for “of ULight-anti 6×His”, “1024 Anti-6×His” for “1024 labeled streptavidin”

For the compound `O=c1[nH]ncc(N2Cc3ccc(OC4CCNCC4)cc3C2)c1C(F)(F)F` [Compound A, 5-[5-(Piperidin-4-yloxy)-2,3-dihydro-1H-isoindol-2-yl]-4-(trifluoromethyl)-2,3-dihydropyridazin-3-one], the results for the IC50 at PARP14, at TIPARP and at PARP12 were 50 nM, 7 nM and 200 nM, respectively.
